Source: patent US9611292B2, “Peptide inhibitors of serotonin 5-HT2c receptors:PTEN interaction” (THE BOARD OF REGENTS OF THE UNIVERSITY OF TEXAS SYSTEM, priority 2011, dated 2017)
Entries after “also recorded” stand apart in the source; their conditions may differ.

How the values were obtained:
[1] = system: rats; experiment: 1-choice serial reaction time task, impulsive action (premature responses); type: in vivo, rat; details: 1-choice serial reaction time task, single agent
From the text: FIG. 23 illustrates additional behavioral effects of TAT-3L4F.

[2] = system: 5-HT2CR; experiment: Cai++ release in 5-HT2CR-CHO cells; type: cell-based
From the text: (§1) The 5-HT2CR:PTEN complex occurs in rat brain regions implicated in palatable food reward. […] These cells have been employed for 5-HT2CR signaling studies. […] Providing 3L4F and fragments thereof disrupt the complex in the cell and result in the lack of co-localization of the molecules by immunohistochemistry or by immunoprecipitation studies. 5-HT2CR and PTEN can be co-immunoprecipitated from brain tissue samples. Additional studies using the split luciferase assay also detect direct coupling of 5-HT2CR with PTEN.
Functional analysis of the complex was investigated using Cai^++ release in 5-HT2CR-CHO cells. […] The studies have shown that the 3L4F peptide enhances Cai^++ release via a 5-HT2CR specific mechanism acting down stream ligand binding.
FIG. 15 compares the efficacy of derivatives 210 and A1 in terms of % 1 nM 5-HT induced Cai^++ release in 5-HT2CR-CHO cells. FIG. 16 compares the efficacy of derivatives 210 and A2 in terms of % 1 nM 5-HT induced Cai^++ Release in 5-HT2CR-CHO cells. FIG. 17 compares the efficacy of derivatives 210 and A3 in terms of % 1 nM 5-HT induced Cai^++ release in 5-HT2CR-CHO cells. FIG. 18 compares the efficacy of derivatives 210 and A4 in terms of % 1 nM 5-HT induced Cai^++ release in 5-HT2CR-CHO cells. FIG. 19 compares the efficacy of derivatives 210 and A5 in terms of % 1 nM 5-HT induced Cai^++ release in 5-HT2CR-CHO cells. FIG. 20 compares the efficacy of derivatives 210 and A6 in terms of % 1 nM 5-HT induced Cai^++ release in 5-HT2CR-CHO cells. FIG. 21 compares the efficacy of derivatives 210 and A8 in terms of % 1 nM 5-HT induced […] release in 5-HT2CR-CHO cells.

[3] = system: 5-HT2CR:PTEN complex; experiment: in situ localization (immunohistochemistry / immunoprecipitation) of 5-HT2CR:PTEN association in cells; type: cell-based; details: for disrupting activity on 5-HT2CR:PTEN association: summary statement, assay not specified
From the text: as §1
Peptides described herein enhance 5-HT2CR signaling and peptide disruption of the serotonin (5-HT) 5-HT2CR interaction with protein phosphatase and tensin (PTEN). This interaction is functionally important to the 5-HT2CR signalosome.

[4] = target: T1, 5-HT2AR (Homo sapiens, UniProt P28223); experiment: Cai++ release in 5-HT2AR-CHO cells; type: cell-based
T1 construct: expressed in transfected cells; host or cells: CHO
T1 sequence (P28223 whole entry): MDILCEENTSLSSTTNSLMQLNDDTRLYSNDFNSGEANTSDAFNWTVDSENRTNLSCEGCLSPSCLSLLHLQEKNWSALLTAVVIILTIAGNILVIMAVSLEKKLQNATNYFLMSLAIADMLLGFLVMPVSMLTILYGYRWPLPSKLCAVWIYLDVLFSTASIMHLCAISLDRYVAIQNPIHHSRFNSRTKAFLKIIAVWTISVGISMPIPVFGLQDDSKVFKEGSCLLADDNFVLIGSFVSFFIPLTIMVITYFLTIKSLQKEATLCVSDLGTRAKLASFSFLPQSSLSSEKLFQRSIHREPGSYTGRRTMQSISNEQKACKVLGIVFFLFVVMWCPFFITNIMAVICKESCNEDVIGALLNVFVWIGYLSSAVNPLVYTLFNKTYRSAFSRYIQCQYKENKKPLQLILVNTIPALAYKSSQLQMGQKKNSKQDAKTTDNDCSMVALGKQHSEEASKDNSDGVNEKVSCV

[5] = system: 5-HT2CR:PTEN interaction; experiment: split luciferase assay of direct 5-HT2CR:PTEN interaction in live cells; type: cell-based
From the text: In addition split luciferase assays were used to detect direct coupling of 5-HT2CR with PTEN.

| Molecule | 5-HT (1 nM) induced Cai++ release [2] | disrupting activity on 5-HT2CR:PTEN association [3] | other results |
| --- | --- | --- | --- |
| c1cc2c3c(c1)[C@H]1CCC[C@H]1N3CCNC2 [WAY163909] | – | – | impulsive action (premature responses), agent alone [1]: neither of which have effects on their own |
| PNQDQNAR [derivative 210] | retain 3L4F activity; also recorded: increase | active fragment | – |
| PNQDQNARRRKKKERR [3L4F] | increases | disrupter | WAY163909 induced Cai++ release ([2]; selective orthosteric 5-HT2CR agonist WAY163909): potentiates; 3L4F-enhanced 5-HT induced Cai++ release, effect of 5-HT2CR antagonist ([2]; with 5-HT2CR antagonist): inhibits; 5-HT induced Cai++ release [4]: does not alter; association of 5-HT2CR and PTEN ([3]; quantitation of in situ localization studies): disrupts the association; direct 5-HT2CR:PTEN interaction ([5]; NLuc fused to 3rd intracellular loop of 5-HT2CR, CLuc fused to PTEN): disrupts; direct 5-HT2CR:PTEN interaction ([5]; NLuc fused to full length 5-HT2CR): disrupts |
| QNARRRKK [derivative 212] | less efficacious than 3L4 F | less disrupting activity than the 210 fragment | – |
| RRKKKERR [derivative 214] | less efficacious than 3L4 F | less disrupting activity than the 210 fragment | – |
| V27-R45: 5-HT2CR N-terminus peptide fragment V27-R45 (VSPVAAIVTDIFNTSDGGR) [reference compound] | inactive | – | – |
